Experimental data from publication PMC10006169, “A phase I trial of LXS196, a protein kinase C (PKC) inhibitor, for metastatic uveal melanoma” (British Journal of Cancer, 2023).
Values joined by “and” are separate entries in the source; they are usually repeats but may differ in a detail not shown here. Equal entries are not always repeated.

System: patients with MUM
Test: Adverse events suspected to be study drug related (NCI-CTCAE v4.03)
Format: in vivo, human
Details: for Alanine aminotransferase increased / Aspartate aminotransferase increased / Asthenia / Blood creatinine increased / Constipation / Diarrhoea / Dry skin / Fatigue / Hypotension / Nausea / Number of patients with ≥1 adverse event / Rash / Vomiting: suspected drug related
Protocol: Routine safety assessments, including laboratory assessments, physical examinations, vital signs and electrocardiograms (ECGs), were conducted at regular intervals throughout the study and more frequently as needed following patient assessment by the treating physician. Adverse events (AEs) were assessed continuously according to the National Cancer Institute Common Terminology Criteria for Adverse Events (NCI-CTCAE) v4.03.

[1] = 300 mg BID (RDE), n=18, All grades
[2] = 300 mg BID (RDE), n=18, Grade ≥3
[3] = All LXS196 BID patients, n=30, All grades
[4] = All LXS196 BID patients, n=30, Grade ≥3
[5] = All LXS196 patients, N=68, All grades
[6] = All LXS196 patients, N=68, Grade ≥3

SMILES: CC1(N)CCN(c2cccnc2NC(=O)c2nc(-c3ncccc3C(F)(F)F)cnc2N)CC1 [LXS196]
- Dry skin, all grades (All BID): 6 (20.0) n (%)
- Dry skin, grade ≥3 (All BID): 0 n (%)
- Fatigue, all grades (All BID): 4 (13.3) n (%)
- Fatigue, grade ≥3 (All BID): 0 n (%)
- Hypotension, all grades (All BID): 7 (23.3) n (%)
- Nausea, all grades (All BID): 19 (63.3) n (%)
- Nausea, grade ≥3 (All BID): 0 n (%)
- Patients with ≥1 AE, all grades (All BID): 28 (93.3) n (%)
- Patients with ≥1 AE, grade ≥3 (All BID): 6 (20.0) n (%)
- Rash, all grades (All BID): 5 (16.7) n (%)
- Rash, grade ≥3 (All BID): 0 n (%)
- Vomiting, all grades (All BID): 9 (30.0) n (%)
- Vomiting, grade ≥3 (All BID): 0 n (%)
- ALT increased, all grades (All QD): 7 (18.4) n (%)
- ALT increased, grade ≥3 (All QD): 2 (5.3) n (%)
- AST increased, all grades (All QD): 5 (13.2) n (%)
- AST increased, grade ≥3 (All QD): 2 (5.3) n (%)
- Asthenia, all grades (All QD): 6 (15.8) n (%)
- Asthenia, grade ≥3 (All QD): 0 n (%)
- Blood creatinine increased, all grades (All QD): 2 (5.3) n (%)
- Blood creatinine increased, grade ≥3 (All QD): 0 n (%)
- Constipation, all grades (All QD): 4 (10.5) n (%)
- Constipation, grade ≥3 (All QD): 0 n (%)
- Diarrhoea, all grades (All QD): 15 (39.5) n (%)
- Diarrhoea, grade ≥3 (All QD): 0 n (%)
- Dry skin, all grades (All QD): 2 (5.3) n (%)
- Dry skin, grade ≥3 (All QD): 0 n (%)
- Fatigue, all grades (All QD): 10 (26.3) n (%)
- Fatigue, grade ≥3 (All QD): 0 n (%)
- Hypotension, all grades (All QD): 8 (21.1) n (%)
- Nausea, all grades (All QD): 26 (68.4) n (%)
- Nausea, grade ≥3 (All QD): 1 (2.6) n (%)
- Patients with ≥1 AE, all grades (All QD): 35 (92.1) n (%)
- Patients with ≥1 AE, grade ≥3 (All QD): 11 (28.9) n (%)
- Rash, all grades (All QD): 3 (7.9) n (%)
- Rash, grade ≥3 (All QD): 0 n (%)
- Vomiting, all grades (All QD): 12 (31.6) n (%)
- Vomiting, grade ≥3 (All QD): 1 (2.6) n (%)
- ALT increased, all grades (All patients): 15 (22.1) n (%)
- ALT increased, grade ≥3 (All patients): 4 (5.9) n (%)
- AST increased, all grades (All patients): 11 (16.2) n (%)
- AST increased, grade ≥3 (All patients): 4 (5.9) n (%)
- Asthenia, all grades (All patients): 13 (19.1) n (%)
- Asthenia, grade ≥3 (All patients): 0 n (%)
- Blood creatinine increased, all grades (All patients): 7 (10.3) n (%)
- Blood creatinine increased, grade ≥3 (All patients): 0 n (%)
- Constipation, all grades (All patients): 7 (10.3) n (%)
- Constipation, grade ≥3 (All patients): 0 n (%)
- Diarrhoea, all grades (All patients): 31 (45.6) n (%)
- Diarrhoea, grade ≥3 (All patients): 1 (1.5) n (%)
- Dry skin, all grades (All patients): 8 (11.8) n (%)
- Dry skin, grade ≥3 (All patients): 0 n (%)
- Fatigue, all grades (All patients): 14 (20.6) n (%)
- Fatigue, grade ≥3 (All patients): 0 n (%)
- Hypotension, all grades (All patients): 15 (22.1) n (%)
- Hypotension, grade ≥3 (All patients): 6 (8.8) n (%)
- Nausea, all grades (All patients): 45 (66.2) n (%)
- Nausea, grade ≥3 (All patients): 1 (1.5) n (%)
- Patients with ≥1 AE, all grades (All patients): 63 (92.6%) n (%) and 63 (92.6) n (%)
- Patients with ≥1 AE, grade ≥3 (All patients): 17 (25.0%) n (%) and 17 (25.0) n (%)
- Rash, all grades (All patients): 8 (11.8) n (%)
- Rash, grade ≥3 (All patients): 0 n (%)
- Vomiting, all grades (All patients): 21 (30.9) n (%)
- Vomiting, grade ≥3 (All patients): 1 (1.5) n (%)
- Alanine aminotransferase increased (200 mg BID, n=6, All grades): 0 n (%)
- Aspartate aminotransferase increased (200 mg BID, n=6, All grades): 0 n (%)
- Asthenia (200 mg BID, n=6, All grades): 1 (16.7) n (%)
- Blood creatinine increased (200 mg BID, n=6, All grades): 3 (50.0) n (%)
- Constipation (200 mg BID, n=6, All grades): 0 n (%)
- Diarrhoea (200 mg BID, n=6, All grades): 2 (33.3) n (%)
- Dry skin (200 mg BID, n=6, All grades): 1 (16.7) n (%)
- Fatigue (200 mg BID, n=6, All grades): 0 n (%)
- Hypotension (200 mg BID, n=6, All grades): 0 n (%)
- Nausea (200 mg BID, n=6, All grades): 2 (33.3) n (%)
- Number of patients with ≥1 adverse event (200 mg BID, n=6, All grades): 5 (83.3) n (%)
- Rash (200 mg BID, n=6, All grades): 0 n (%)
- Vomiting (200 mg BID, n=6, All grades): 0 n (%)
- Alanine aminotransferase increased (200 mg BID, n=6, Grade ≥3): 0 n (%)
- Aspartate aminotransferase increased (200 mg BID, n=6, Grade ≥3): 0 n (%)
- Asthenia (200 mg BID, n=6, Grade ≥3): 0 n (%)
- Blood creatinine increased (200 mg BID, n=6, Grade ≥3): 0 n (%)
- Constipation (200 mg BID, n=6, Grade ≥3): 0 n (%)
- Diarrhoea (200 mg BID, n=6, Grade ≥3): 0 n (%)
- Dry skin (200 mg BID, n=6, Grade ≥3): 0 n (%)
- Fatigue (200 mg BID, n=6, Grade ≥3): 0 n (%)
- Hypotension (200 mg BID, n=6, Grade ≥3): 0 n (%)
- Nausea (200 mg BID, n=6, Grade ≥3): 0 n (%)
- Number of patients with ≥1 adverse event (200 mg BID, n=6, Grade ≥3): 0 n (%)
- Rash (200 mg BID, n=6, Grade ≥3): 0 n (%)
- Vomiting (200 mg BID, n=6, Grade ≥3): 0 n (%)
- Alanine aminotransferase increased [1]: 5 (27.8) n (%)
- Aspartate aminotransferase increased [1]: 3 (16.7) n (%)
- Asthenia [1]: 4 (22.2) n (%)
- Blood creatinine increased [1]: 2 (11.1) n (%)
- Constipation [1]: 1 (5.6) n (%)
- Diarrhoea [1]: 11 (61.1) n (%)
- Dry skin [1]: 4 (22.2) n (%)
- Fatigue [1]: 3 (16.7) n (%)
- Hypotension [1]: 3 (16.7) n (%)
- Nausea [1]: 14 (77.8) n (%)
- Number of patients with ≥1 adverse event [1]: 17 (94.4) n (%)
- Rash [1]: 4 (22.2) n (%)
- Vomiting [1]: 7 (38.9) n (%)
- Alanine aminotransferase increased [2]: 1 (5.6) n (%)
- Aspartate aminotransferase increased [2]: 1 (5.6) n (%)
- Asthenia [2]: 0 n (%)
- Blood creatinine increased [2]: 0 n (%)
- Constipation [2]: 0 n (%)
- Diarrhoea [2]: 1 (5.6) n (%)
- Dry skin [2]: 0 n (%)
- Fatigue [2]: 0 n (%)
- Hypotension [2]: 0 n (%)
- Nausea [2]: 0 n (%)
- Number of patients with ≥1 adverse event [2]: 2 (11.1) n (%)
- Rash [2]: 0 n (%)
- Vomiting [2]: 0 n (%)
- Alanine aminotransferase increased (400 mg BID, n=6, All grades): 3 (50.0) n (%)
- Aspartate aminotransferase increased (400 mg BID, n=6, All grades): 3 (50.0) n (%)
- Asthenia (400 mg BID, n=6, All grades): 2 (33.3) n (%)
- Blood creatinine increased (400 mg BID, n=6, All grades): 0 n (%)
- Constipation (400 mg BID, n=6, All grades): 2 (33.3) n (%)
- Diarrhoea (400 mg BID, n=6, All grades): 3 (50.0) n (%)
- Dry skin (400 mg BID, n=6, All grades): 1 (16.7) n (%)
- Fatigue (400 mg BID, n=6, All grades): 1 (16.7) n (%)
- Hypotension (400 mg BID, n=6, All grades): 4 (66.7) n (%)
- Nausea (400 mg BID, n=6, All grades): 3 (50.0) n (%)
- Number of patients with ≥1 adverse event (400 mg BID, n=6, All grades): 6 (100) n (%)
- Rash (400 mg BID, n=6, All grades): 1 (16.7) n (%)
- Vomiting (400 mg BID, n=6, All grades): 2 (33.3) n (%)
- Alanine aminotransferase increased (400 mg BID, n=6, Grade ≥3): 1 (16.7) n (%)
- Aspartate aminotransferase increased (400 mg BID, n=6, Grade ≥3): 1 (16.7) n (%)
- Asthenia (400 mg BID, n=6, Grade ≥3): 0 n (%)
- Blood creatinine increased (400 mg BID, n=6, Grade ≥3): 0 n (%)
- Constipation (400 mg BID, n=6, Grade ≥3): 0 n (%)
- Diarrhoea (400 mg BID, n=6, Grade ≥3): 0 n (%)
- Dry skin (400 mg BID, n=6, Grade ≥3): 0 n (%)
- Fatigue (400 mg BID, n=6, Grade ≥3): 0 n (%)
- Hypotension (400 mg BID, n=6, Grade ≥3): 1 (16.7) n (%)
- Nausea (400 mg BID, n=6, Grade ≥3): 0 n (%)
- Number of patients with ≥1 adverse event (400 mg BID, n=6, Grade ≥3): 4 (66.7) n (%)
- Rash (400 mg BID, n=6, Grade ≥3): 0 n (%)
- Vomiting (400 mg BID, n=6, Grade ≥3): 0 n (%)
- Alanine aminotransferase increased [3]: 8 (26.7) n (%)
- Aspartate aminotransferase increased [3]: 6 (20.0) n (%)
- Asthenia [3]: 7 (23.3) n (%)
- Blood creatinine increased [3]: 5 (16.7) n (%)
- Constipation [3]: 3 (10.0) n (%)
- Diarrhoea [3]: 16 (53.3) n (%)
- Dry skin [3]: 6 (20.0) n (%)
- Fatigue [3]: 4 (13.3) n (%)
- Hypotension [3]: 7 (23.3) n (%)
- Nausea [3]: 19 (63.3) n (%)
- Number of patients with ≥1 adverse event [3]: 28 (93.3) n (%)
- Rash [3]: 5 (16.7) n (%)
- Vomiting [3]: 9 (30.0) n (%)
- Alanine aminotransferase increased [4]: 2 (6.7) n (%)
- Aspartate aminotransferase increased [4]: 2 (6.7) n (%)
- Asthenia [4]: 0 n (%)
- Blood creatinine increased [4]: 0 n (%)
- Constipation [4]: 0 n (%)
- Diarrhoea [4]: 1 (3.3) n (%)
- Dry skin [4]: 0 n (%)
- Fatigue [4]: 0 n (%)
- Hypotension [4]: 1 (3.3) n (%)
- Nausea [4]: 0 n (%)
- Number of patients with ≥1 adverse event [4]: 6 (20.0) n (%)
- Rash [4]: 0 n (%)
- Vomiting [4]: 0 n (%)
- Alanine aminotransferase increased [5]: 15 (22.1) n (%)
- Aspartate aminotransferase increased [5]: 11 (16.2) n (%)
- Asthenia [5]: 13 (19.1) n (%)
- Blood creatinine increased [5]: 7 (10.3) n (%)
- Constipation [5]: 7 (10.3) n (%)
- Diarrhoea [5]: 31 (45.6) n (%)
- Dry skin [5]: 8 (11.8) n (%)
- Fatigue [5]: 14 (20.6) n (%)
- Hypotension [5]: 15 (22.1) n (%)
- Nausea [5]: 45 (66.2) n (%)
- Number of patients with ≥1 adverse event [5]: 63 (92.6) n (%)
- Rash [5]: 8 (11.8) n (%)
- Vomiting [5]: 21 (30.9) n (%)
- Alanine aminotransferase increased [6]: 4 (5.9) n (%)
- Aspartate aminotransferase increased [6]: 4 (5.9) n (%)
- Asthenia [6]: 0 n (%)
- Blood creatinine increased [6]: 0 n (%)
- Constipation [6]: 0 n (%)
- Diarrhoea [6]: 1 (1.5) n (%)
- Dry skin [6]: 0 n (%)
- Fatigue [6]: 0 n (%)
- Hypotension [6]: 6 (8.8) n (%)
- Nausea [6]: 1 (1.5) n (%)
- Number of patients with ≥1 adverse event [6]: 17 (25.0) n (%)
- Rash [6]: 0 n (%)
- Vomiting [6]: 1 (1.5) n (%)
